Measured values as given in patent US11578069B2, “Compounds for inhibition of α4 β7 integrin” (Gilead Sciences, Inc., priority 2019, dated 2023).

Legend:
α4β7 integrin = molecular target: T1, α4β7 integrin (Homo sapiens, UniProt P13612+P26010); experiment: α4β7 Integrin Cell Capture Assay; type: cell-based; details: capture of α4β7 integrin expressing RPM18866 cells on MadCAM-1 extracellular domain-coated plate
T1 construct: monitoring the capture of α4β7 integrin expressing cells; endogenous in cells; host or cells: RPMI8866
T1 sequence (P13612 34-1032): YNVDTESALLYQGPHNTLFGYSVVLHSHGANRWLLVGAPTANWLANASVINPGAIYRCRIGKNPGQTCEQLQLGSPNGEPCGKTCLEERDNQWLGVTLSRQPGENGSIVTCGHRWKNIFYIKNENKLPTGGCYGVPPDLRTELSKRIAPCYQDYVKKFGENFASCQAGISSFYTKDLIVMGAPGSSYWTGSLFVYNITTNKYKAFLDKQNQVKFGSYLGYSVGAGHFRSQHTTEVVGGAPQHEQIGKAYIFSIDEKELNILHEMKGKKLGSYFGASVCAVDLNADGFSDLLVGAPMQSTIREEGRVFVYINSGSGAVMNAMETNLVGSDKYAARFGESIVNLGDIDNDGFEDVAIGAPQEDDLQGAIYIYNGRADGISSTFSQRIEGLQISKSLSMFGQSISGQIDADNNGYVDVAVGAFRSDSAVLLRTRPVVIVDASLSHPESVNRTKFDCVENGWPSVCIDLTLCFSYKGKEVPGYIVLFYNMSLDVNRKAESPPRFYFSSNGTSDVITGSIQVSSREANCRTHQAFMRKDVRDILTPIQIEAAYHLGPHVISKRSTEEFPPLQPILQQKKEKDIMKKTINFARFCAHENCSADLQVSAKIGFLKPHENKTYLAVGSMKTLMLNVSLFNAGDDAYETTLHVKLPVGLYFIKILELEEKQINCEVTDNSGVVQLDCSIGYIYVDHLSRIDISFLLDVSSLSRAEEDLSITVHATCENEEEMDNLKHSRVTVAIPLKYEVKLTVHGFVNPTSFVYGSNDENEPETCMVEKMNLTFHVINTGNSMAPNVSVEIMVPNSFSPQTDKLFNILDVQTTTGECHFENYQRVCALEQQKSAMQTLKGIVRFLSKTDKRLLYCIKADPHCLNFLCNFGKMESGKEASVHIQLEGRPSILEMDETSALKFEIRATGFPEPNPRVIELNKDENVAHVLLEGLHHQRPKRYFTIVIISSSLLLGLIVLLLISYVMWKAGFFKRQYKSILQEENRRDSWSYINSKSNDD
T1 sequence (P26010 20-798): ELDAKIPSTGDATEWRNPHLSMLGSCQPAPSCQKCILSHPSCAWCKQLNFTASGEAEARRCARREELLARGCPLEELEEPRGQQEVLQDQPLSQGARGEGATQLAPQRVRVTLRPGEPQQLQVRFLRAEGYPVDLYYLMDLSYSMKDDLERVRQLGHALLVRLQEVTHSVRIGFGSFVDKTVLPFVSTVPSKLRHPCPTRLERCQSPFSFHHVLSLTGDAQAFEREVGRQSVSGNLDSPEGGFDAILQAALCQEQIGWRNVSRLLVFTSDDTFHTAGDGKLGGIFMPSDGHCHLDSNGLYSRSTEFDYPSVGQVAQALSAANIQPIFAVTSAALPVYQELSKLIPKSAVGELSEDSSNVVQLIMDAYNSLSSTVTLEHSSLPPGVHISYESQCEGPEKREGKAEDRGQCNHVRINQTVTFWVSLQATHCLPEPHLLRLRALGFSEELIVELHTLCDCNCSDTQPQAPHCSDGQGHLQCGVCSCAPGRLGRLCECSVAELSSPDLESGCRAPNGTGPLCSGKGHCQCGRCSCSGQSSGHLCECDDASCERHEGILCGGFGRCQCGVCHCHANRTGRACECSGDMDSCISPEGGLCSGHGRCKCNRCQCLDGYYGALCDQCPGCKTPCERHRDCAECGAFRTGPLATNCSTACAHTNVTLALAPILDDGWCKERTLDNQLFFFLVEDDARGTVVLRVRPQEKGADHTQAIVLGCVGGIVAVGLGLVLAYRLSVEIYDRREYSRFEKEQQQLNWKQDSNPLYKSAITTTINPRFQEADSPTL
Experimental: The potency of inhibitors in preventing α4β7 integrin interaction with MadCAM-1 was measured by monitoring the capture of α4β7 integrin expressing cells on a recombinant MadCAM-1 extracellular domain-coated plate.
384-well plates (Corning 3702) were coated with MadCAM-1 extracellular domain by dispensing 20 μL of MAdCAM-1 at 1.0 μg/mL per well and incubating overnight at 4° C. The plates were then washed with PBS and blocked with 3% BSA for 2 hours before being washed again.
(§1) RPM18866 cells were spun down and re-suspended in assay medium (DMEM+0.5% FBS+0.5 mM MnCl2) at a density of 0.5×10^6 cells/mL. The cells were then dispensed (60 μL/well) to a 384-well plate (Greiner 781280) that was previously spotted with 60 nL of test compound per well. The plates were incubated at 37° C. for 1 hour. 50 μL of cells were transferred to the blocked, MadCAM-1-coated plates and incubated for 30 minutes at 37° C. 10 μL of 12% glutaraldehyde containing Hoechst 33342 (0.06 mg/mL) was added to the cells (2% glutaraldehyde and 0.01 mg/mL final concentrations). The plates were incubated for 90 minutes at room temperature. The plates were then washed 3 times with 70 μL of PBS per well and imaged on a Cellomics ArrayScan instrument. The cells that were bound to the plate were counted and plotted against the compound concentration to determine the EC50 of the test compounds.

α4β1 integrin = molecular target: T2, α4β1 integrin (Homo sapiens, UniProt P05556+P13612); experiment: α4β1 Cell Capture Assay; type: cell-based; details: capture of α4β1 expressing Jurkat cells on VCAM-1 extracellular domain-coated plate
T2 construct: monitoring the capture of α4β1 expressing cells; endogenous in cells; host or cells: Jurkat
Experimental: The potency of inhibitors in preventing α4β1 integrin interaction with VCAM-1 was measured by monitoring the capture of α4β1 expressing cells to a recombinant VCAM-1 extracellular domain-coated plate.
384-well plates (Corning 3702) were coated with VCAM-1 extracellular domain by dispensing 20 μL of VCAM-1 at 0.5 μg/ml per well and incubating overnight at 4° C. The plates were then washed with PBS and blocked with 3% BSA for 2 hours before being washed again.
as §1, with “Jurkat cells” for “RPM18866 cells”, “0.5×10^6 cells/ml.” for “0.5×10^6 cells/mL.”, “blocked, VCAM-1-coated” for “blocked, MadCAM-1-coated”, “10 μl” for “10 μL”, “0.01 mg/ml Hoechst 33342” for “0.01 mg/mL”

T2 sequence (P05556 21-798, one chain of several): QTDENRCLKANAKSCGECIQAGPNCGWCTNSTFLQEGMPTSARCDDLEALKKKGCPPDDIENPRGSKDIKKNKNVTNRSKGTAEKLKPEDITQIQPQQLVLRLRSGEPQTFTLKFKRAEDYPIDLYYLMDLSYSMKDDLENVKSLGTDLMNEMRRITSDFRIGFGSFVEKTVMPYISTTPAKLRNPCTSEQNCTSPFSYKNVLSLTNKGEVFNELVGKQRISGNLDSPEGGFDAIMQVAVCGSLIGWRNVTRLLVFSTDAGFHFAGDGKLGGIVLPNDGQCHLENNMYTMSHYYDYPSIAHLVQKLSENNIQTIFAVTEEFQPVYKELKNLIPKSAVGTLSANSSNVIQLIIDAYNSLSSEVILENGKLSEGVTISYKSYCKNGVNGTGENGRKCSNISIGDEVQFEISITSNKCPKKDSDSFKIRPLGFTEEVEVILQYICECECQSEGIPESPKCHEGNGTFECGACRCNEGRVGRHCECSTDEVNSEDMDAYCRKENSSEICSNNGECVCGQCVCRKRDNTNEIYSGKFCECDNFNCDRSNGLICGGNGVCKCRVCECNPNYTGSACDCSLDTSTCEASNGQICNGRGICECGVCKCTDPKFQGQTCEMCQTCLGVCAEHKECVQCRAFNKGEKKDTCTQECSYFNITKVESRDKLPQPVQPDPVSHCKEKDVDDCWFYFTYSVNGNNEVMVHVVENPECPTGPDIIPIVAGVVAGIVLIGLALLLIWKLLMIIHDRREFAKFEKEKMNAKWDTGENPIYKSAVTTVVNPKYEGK

Cc1c(-c2ccc(C[C@H](NC(=O)c3c(F)cc(N4CCOC[C@@H]4C(F)(F)F)cc3F)C(=O)O)cc2)c(=O)n(C)c(=O)n1C [Example 37]
EC50 (α4β7 integrin; Table 2): 0.4 nM | EC50 (α4β1 integrin; Table 2): 9.8 nM

Cc1nc(-c2ccc(C[C@H](NC(=O)c3c(F)cc(N4CCOC[C@@H]4C(F)(F)F)cc3F)C(=O)O)cc2)c(=O)n(C)c1C [Example 38]
EC50 (α4β7 integrin; Table 2): 4.9 nM | EC50 (α4β1 integrin; Table 2): 86.1 nM

Cc1cc(C[C@H](NC(=O)c2c(F)cc(N3CCOC[C@@H]3C(F)(F)F)cc2F)C(=O)O)ccc1-c1c(C)n(C)c(=O)n(C)c1=O [Example 39]
EC50 (α4β7 integrin; Table 2): 0.4 nM | EC50 (α4β1 integrin; Table 2): 12.8 nM

Cc1cc(C[C@H](NC(=O)c2c(C)cc(N3CCOC[C@@H]3C(F)(F)F)cc2F)C(=O)O)ccc1-c1c(C)nc(C)n(C)c1=O [Example 40]
EC50 (α4β7 integrin; Table 2): 0.3 nM | EC50 (α4β1 integrin; Table 2): 7.7 nM

Cc1cc(C[C@H](NC(=O)c2c(C)cc(N3CCOC[C@@H]3C(F)(F)F)cc2F)C(=O)O)ccc1-c1nc(C)c(C)n(C)c1=O [Example 42]
EC50 (α4β7 integrin; Table 2): 0.3 nM | EC50 (α4β1 integrin; Table 2): 5.8 nM

CC[C@@H](Nc1cc(F)c(C(=O)N[C@@H](Cc2ccc(-n3c(=O)cc(C)n(C)c3=O)nc2)C(=O)O)c(F)c1)C(F)(F)F [Example 43]
EC50 (α4β7 integrin; Table 2): 15.9 nM | EC50 (α4β1 integrin; Table 2): 661 nM

CC[C@@H](Nc1cc(F)c(C(=O)N[C@@H](Cc2ccc(-c3c(C)c4cc(F)ccc4n(C)c3=O)nc2)C(=O)O)c(F)c1)C(F)(F)F [Example 44]
EC50 (α4β7 integrin; Table 2): 2.9 nM | EC50 (α4β1 integrin; Table 2): 37.6 nM

COc1cc(C[C@H](NC(=O)c2c(F)cc(N3CCOC[C@@H]3C(F)(F)F)cc2F)C(=O)O)ccc1-n1c(=O)c2ccncc2n(C)c1=O [Example 53]
EC50 (α4β7 integrin; Table 2): 0.2 nM | EC50 (α4β1 integrin; Table 2): 18.6 nM

Cn1c(=O)n(-c2ccc(C[C@H](NC(=O)c3c(F)cc(N4CCOC[C@@H]4C(F)(F)F)cc3Cl)C(=O)O)cn2)c(=O)c2ccncc21 [Example 55, (S)-2-(2-chloro-6-fluoro-4-((R)-3-(trifluoromethyl)morpholino)benzamido)-3-(6-(1-methyl-2,4-dioxo-1,4-dihydropyrido[3,4-d]pyrimidin-3(2H)-yl)pyridin-3-yl)propanoic acid]
EC50 (α4β7 integrin; Table 1): 0.1 nM | EC50 (α4β1 integrin; Table 1): 3.4 nM

Cc1cc(N2CCOC[C@@H]2CC(F)F)cc(F)c1C(=O)N[C@@H](Cc1ccc(-n2c(=O)c3c(n(C)c2=O)CCOC3)cc1)C(=O)O [Example 57, (S)-2-(4-((S)-3-(2,2-difluoroethyl)morpholino)-2-fluoro-6-methylbenzamido)-3-(4-(1-methyl-2,4-dioxo-1,5,7,8-tetrahydro-2H-pyrano[4,3-d]pyrimidin-3(4H)-yl)phenyl)propanoic acid]
EC50 (α4β7 integrin; Table 1): 0.2 nM | EC50 (α4β1 integrin; Table 1): 2.8 nM

Cc1cc(N2CCOC[C@@H]2C(F)(F)F)cc(F)c1C(=O)N[C@@H](Cc1ccc(-n2c(=O)c3c(n(C)c2=O)CCOC3)cc1)C(=O)O [Example 59, (S)-2-(2-fluoro-6-methyl-4-((R)-3-(trifluoromethyl)morpholino)benzamido)-3-(4-(1-methyl-2,4-dioxo-1,5,7,8-tetrahydro-2H-pyrano[4,3-d]pyrimidin-3(4H)-yl)phenyl)propanoic acid]
EC50 (α4β7 integrin; Table 1): 0.1 nM | EC50 (α4β1 integrin; Table 1): 2.9 nM

Cn1c2c(c(=O)n(-c3ccc(C[C@H](NC(=O)c4c(F)cc(N5CCOC[C@@H]5C(F)(F)F)cc4F)C(=O)O)cc3)c1=O)CCOC2 [Example 61, (S)-2-(2,6-difluoro-4-((R)-3-(trifluoromethyl)morpholino)benzamido)-3-(4-(1-methyl-2,4-dioxo-1,2,4,5,6,8-hexahydro-3H-pyrano[3,4-d]pyrimidin-3-yl)phenyl)propanoic acid]
EC50 (α4β7 integrin; Table 1): 0.4 nM | EC50 (α4β1 integrin; Table 1): 11.5 nM

Cc1cc(N2CCOC[C@@H]2C(F)(F)F)cc(F)c1C(=O)N[C@@H](Cc1ccc(-n2c(=O)c3c(n(C)c2=O)COCC3)cc1)C(=O)O [Example 63, (S)-2-(2-fluoro-6-methyl-4-((R)-3-(trifluoromethyl)morpholino)benzamido)-3-(4-(1-methyl-2,4-dioxo-1,2,4,5,6,8-hexahydro-3H-pyrano[3,4-d]pyrimidin-3-yl)phenyl)propanoic acid]
EC50 (α4β7 integrin; Table 1): 0.1 nM | EC50 (α4β1 integrin; Table 1): 3.7 nM

Cc1cc(N2CCOC[C@@H]2C(F)(F)F)cc(F)c1C(=O)N[C@@H](Cc1ccc(-n2c(=O)c3c(n(C)c2=O)CCC3)cc1)C(=O)O [Example 64, (S)-2-(2-fluoro-6-methyl-4-((R)-3-(trifluoromethyl)morpholino)benzamido)-3-(4-(1-methyl-2,4-dioxo-1,2,4,5,6,7-hexahydro-3H-cyclopenta[d]pyrimidin-3-yl)phenyl)propanoic acid]
EC50 (α4β7 integrin; Table 1): 0.1 nM | EC50 (α4β1 integrin; Table 1): 1.8 nM

Cc1cc(N2CCOC[C@@H]2C(F)(F)F)cc(F)c1C(=O)N[C@@H](Cc1ccc(-n2c(=O)c3c(n(C)c2=O)COC3)cc1)C(=O)O [Example 66, (S)-2-(2-fluoro-6-methyl-4-((R)-3-(trifluoromethyl)morpholino)benzamido)-3-(4-(1-methyl-2,4-dioxo-1,2,5,7-tetrahydrofuro[3,4-d]pyrimidin-3(4H)-yl)phenyl)propanoic acid]
EC50 (α4β7 integrin; Table 1): 0.1 nM | EC50 (α4β1 integrin; Table 1): 4.8 nM
